# Measured values reported in ChEMBL document CHEMBL1144795, “Design of high-affinity peptide conjugates with optimized fluorescence quantum yield as markers for small peptide transporter PEPT1 (SLC15A1)” (Bioorg Med Chem Lett, 2008).
# Target: T1, Solute carrier family 15 member 1 (Homo sapiens) (UniProt P46059)
# T1 sequence (whole entry): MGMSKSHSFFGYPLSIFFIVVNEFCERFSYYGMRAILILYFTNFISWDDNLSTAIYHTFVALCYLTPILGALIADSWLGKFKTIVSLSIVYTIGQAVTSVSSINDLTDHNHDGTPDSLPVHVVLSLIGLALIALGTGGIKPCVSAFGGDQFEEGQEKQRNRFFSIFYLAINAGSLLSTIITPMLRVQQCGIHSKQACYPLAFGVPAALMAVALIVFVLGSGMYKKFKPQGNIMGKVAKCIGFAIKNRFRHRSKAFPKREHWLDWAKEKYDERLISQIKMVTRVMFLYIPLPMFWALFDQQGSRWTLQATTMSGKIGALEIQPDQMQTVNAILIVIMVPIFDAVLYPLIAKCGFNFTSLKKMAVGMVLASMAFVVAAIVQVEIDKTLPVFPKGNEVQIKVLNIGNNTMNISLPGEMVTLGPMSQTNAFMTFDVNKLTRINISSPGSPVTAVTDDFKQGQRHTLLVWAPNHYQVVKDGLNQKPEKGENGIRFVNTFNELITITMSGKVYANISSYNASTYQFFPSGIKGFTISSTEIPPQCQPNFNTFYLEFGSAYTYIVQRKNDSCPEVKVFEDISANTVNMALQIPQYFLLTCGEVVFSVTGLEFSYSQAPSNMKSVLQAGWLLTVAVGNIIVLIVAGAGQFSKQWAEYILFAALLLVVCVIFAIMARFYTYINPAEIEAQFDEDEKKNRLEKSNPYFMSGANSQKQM
# Assay: Inhibition of human PEPT1-mediated [3H]GlySar uptake in CHO cells at 1 mM
# Assay type: cell-based
row,inhibition [%],Compound
1,40,Cc1c(CC(=O)NCCCC[C@H](N)C(=O)N[C@H](C(=O)O)C(C)C)c(=O)oc2cc(N)c(S(=O)(=O)O)cc12
2,< 22,Cc1c(CC(=O)NCCCC[C@H](N)C(=O)N[C@@H](CO)C(=O)O)c(=O)oc2cc(N)c(S(=O)(=O)O)cc12
3,< 22,Cc1c(CC(=O)NCCCC[C@H](N)C(=O)N[C@@H](C)C(=O)O)c(=O)oc2cc(N)c(S(=O)(=O)O)cc12
